Activity and ED50 data for two molecules are collected here from ChEMBL document CHEMBL3244015, “Synthesis and biological evaluation of a tetrahydroisoquinoline derivative possessing selective beta2-adrenergic agonist activity” (J Med Chem, 1977).

Active and inactive are the calls of the source. No cut-off for these calls is given here.

The target in test [1] is Beta-1 adrenergic receptor (Cavia porcellus) (UniProt B0FL73). In words: Agonist activity at beta-1 adrenergic receptor in isolated guinea pig atrial preparation assessed as induction of chronotrophic response at 10^-9 to 10^-3 M. Particulars: Cardiac atrium.
Test [2] addresses Beta-2 adrenergic receptor (Cavia porcellus) (UniProt Q8K4Z4). Put plainly: Agonist activity at beta-2 adrenergic receptor in isolated guinea pig trachea assessed as induction of relaxation of tracheal muscle at 10^-9 to 10^-3 M.
For test [3] the target is unchanged. Put plainly: Agonist activity at beta-2 adrenergic receptor in isolated guinea pig trachea assessed as induction of relaxation of tracheal muscle.

Sequence of Beta-1 adrenergic receptor (Cavia porcellus) (B0FL73 1-467): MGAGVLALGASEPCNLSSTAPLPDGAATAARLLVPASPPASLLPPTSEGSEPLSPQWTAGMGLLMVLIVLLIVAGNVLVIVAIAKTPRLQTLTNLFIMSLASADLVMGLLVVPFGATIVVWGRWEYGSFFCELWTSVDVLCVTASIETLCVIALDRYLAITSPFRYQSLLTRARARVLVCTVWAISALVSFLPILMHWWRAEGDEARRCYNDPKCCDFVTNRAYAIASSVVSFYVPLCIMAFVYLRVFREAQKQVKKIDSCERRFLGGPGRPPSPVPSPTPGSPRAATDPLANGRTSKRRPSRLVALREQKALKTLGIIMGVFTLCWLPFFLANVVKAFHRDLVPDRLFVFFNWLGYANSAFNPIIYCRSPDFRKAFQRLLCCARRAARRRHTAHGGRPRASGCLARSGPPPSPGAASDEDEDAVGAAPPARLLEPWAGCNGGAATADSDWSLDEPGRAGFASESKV
Sequence of Beta-2 adrenergic receptor (Cavia porcellus) (Q8K4Z4 whole entry, looked up): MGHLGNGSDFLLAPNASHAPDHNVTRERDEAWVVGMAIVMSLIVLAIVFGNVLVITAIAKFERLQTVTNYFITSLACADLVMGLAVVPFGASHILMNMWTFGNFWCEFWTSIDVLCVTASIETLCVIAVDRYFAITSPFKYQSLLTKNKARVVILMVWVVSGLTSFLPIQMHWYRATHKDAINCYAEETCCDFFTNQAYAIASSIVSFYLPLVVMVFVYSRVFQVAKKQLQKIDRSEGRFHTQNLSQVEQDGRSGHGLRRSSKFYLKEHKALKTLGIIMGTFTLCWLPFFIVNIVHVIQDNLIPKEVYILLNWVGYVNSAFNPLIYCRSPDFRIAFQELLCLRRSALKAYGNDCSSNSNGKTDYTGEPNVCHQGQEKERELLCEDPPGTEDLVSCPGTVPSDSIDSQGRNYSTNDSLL

As to `COc1cc(CC(CN)c2ccc(O)c(O)c2)cc(OC)c1OC` (centres undefined), the outcome in test [1] and in test [2] was Active.
On to `COc1cc(CC2CNCc3cc(O)c(O)cc32)cc(OC)c1OC` (centres undefined), for which the ED50 in test [3] is 1 ×10⁻⁵ M. Besides, the result in test [1] was inactive.
